# According to patent US7709484B1, “Substituted melanocortin receptor-specific piperazine compounds” (Palatin Technologies, Inc., priority 2004, dated 2010):
# Assays:
# [1] = target: T1, B-16 mouse melanoma cells (containing MC1-R) (Mus musculus, UniProt Q01727); experiment: Competitive inhibition binding assay, 125I-NDP-α-MSH, B-16 mouse melanoma cell membranes; settings: 1 μM test compound; 0.4 nM 125I-NDP-α-MSH; mean of triplicate; results less than 0% reported as 0%; read-out: Inhibition at 1 μM MC1-R (murine)
# T1 construct: B-16 mouse melanoma cells (containing MC1-R); endogenous in cells; host or cells: B-16 mouse melanoma cells
# Procedure: (§1) Competitive inhibition assay. A competitive inhibition binding assay was conducted using membranes prepared from hMC1-R or B-16 mouse melanoma cells (containing MC1-R), hMC3-R, hMC4-R, and hMC5-R, and using 0.4 nM ^125I-NDP-α-MSH (New England Nuclear, Boston, Mass., USA) in 50 mM HEPES buffer containing 1 mM MgCl2, 2 mM CaCl2, and 5 mM KCl, at pH 7.2. The assay tube also contained a chosen concentration of the test compound of this invention, typically a 1 μM concentration, for determining its efficacy in inhibiting the binding of ^125I-NDP-α-MSH to its receptor. Non-specific binding was measured by complete inhibition of binding of ^125I-NDP-α-MSH in the assay with the presence of 1 μM α-MSH.
# (§2) Incubation was for 90 minutes at room temperature, after which the assay mixture was filtered and the membranes washed three times with ice cold buffer. The filter was dried and counted in a gamma counter for remaining radioactivity bound to the membranes. 100% specific binding was defined as the difference in radioactivity (cpm) bound to cell membranes in the absence and presence of 1 μM α-MSH. The cpm obtained in the presence of test compounds are normalized with respect to 100% specific binding to determine the percent inhibition of ^125I-NDP-a-MSH binding. Each assay was conducted in triplicate and the actual mean values are described, with results less than 0% reported as 0%.
# hMC3-R = hMC3-R (Homo sapiens, UniProt P41968); experiment: Competitive inhibition binding assay, 125I-NDP-α-MSH, hMC3-R membranes; settings: 1 μM test compound; 0.4 nM 125I-NDP-α-MSH; mean of triplicate; results less than 0% reported as 0%; read-out: Inhibition at 1 μM MC3-R
# Procedure: as §1, §2
# hMC4-R = hMC4-R (Homo sapiens, UniProt P32245); experiment: Competitive inhibition binding assay, 125I-NDP-α-MSH, hMC4-R membranes; settings: 1 μM test compound; 0.4 nM 125I-NDP-α-MSH; mean of triplicate; results less than 0% reported as 0%; read-out: Inhibition at 1 μM MC4-R
# Procedure: as §1, §2
# hMC5-R = hMC5-R (Homo sapiens, UniProt P33032); experiment: Competitive inhibition binding assay, 125I-NDP-α-MSH, hMC5-R membranes; settings: 1 μM test compound; 0.4 nM 125I-NDP-α-MSH; mean of triplicate; results less than 0% reported as 0%; read-out: Inhibition at 1 μM MC5-R
# Procedure: as §1, §2
# Sequence of hMC3-R (P41968 whole entry): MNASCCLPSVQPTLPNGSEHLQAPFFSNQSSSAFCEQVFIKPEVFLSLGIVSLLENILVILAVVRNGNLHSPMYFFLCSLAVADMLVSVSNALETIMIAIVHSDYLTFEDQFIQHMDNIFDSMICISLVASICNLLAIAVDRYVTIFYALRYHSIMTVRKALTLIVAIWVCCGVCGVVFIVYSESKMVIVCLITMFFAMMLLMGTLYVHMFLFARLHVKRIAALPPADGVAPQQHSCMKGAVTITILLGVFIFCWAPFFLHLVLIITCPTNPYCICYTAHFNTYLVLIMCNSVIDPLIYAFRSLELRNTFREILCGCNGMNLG
# Sequence of hMC5-R (P33032 whole entry): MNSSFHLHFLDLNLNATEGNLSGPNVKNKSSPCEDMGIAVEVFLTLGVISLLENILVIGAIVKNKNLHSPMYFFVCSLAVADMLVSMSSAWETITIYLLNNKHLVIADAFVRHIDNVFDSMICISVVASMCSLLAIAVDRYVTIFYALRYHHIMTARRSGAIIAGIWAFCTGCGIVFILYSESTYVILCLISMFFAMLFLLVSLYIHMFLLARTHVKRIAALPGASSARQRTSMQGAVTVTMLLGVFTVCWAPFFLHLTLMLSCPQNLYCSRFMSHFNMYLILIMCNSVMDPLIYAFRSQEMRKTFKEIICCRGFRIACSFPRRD
# T1 sequence (Q01727 whole entry): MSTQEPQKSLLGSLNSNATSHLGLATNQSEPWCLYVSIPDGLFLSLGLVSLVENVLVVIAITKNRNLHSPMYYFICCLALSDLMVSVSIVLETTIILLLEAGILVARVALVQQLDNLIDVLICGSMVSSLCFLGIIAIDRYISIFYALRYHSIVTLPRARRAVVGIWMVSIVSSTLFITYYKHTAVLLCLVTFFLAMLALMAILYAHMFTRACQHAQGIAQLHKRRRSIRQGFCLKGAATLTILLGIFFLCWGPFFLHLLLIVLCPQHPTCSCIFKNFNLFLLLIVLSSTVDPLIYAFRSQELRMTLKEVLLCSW
# Sequence of hMC4-R (P32245 whole entry): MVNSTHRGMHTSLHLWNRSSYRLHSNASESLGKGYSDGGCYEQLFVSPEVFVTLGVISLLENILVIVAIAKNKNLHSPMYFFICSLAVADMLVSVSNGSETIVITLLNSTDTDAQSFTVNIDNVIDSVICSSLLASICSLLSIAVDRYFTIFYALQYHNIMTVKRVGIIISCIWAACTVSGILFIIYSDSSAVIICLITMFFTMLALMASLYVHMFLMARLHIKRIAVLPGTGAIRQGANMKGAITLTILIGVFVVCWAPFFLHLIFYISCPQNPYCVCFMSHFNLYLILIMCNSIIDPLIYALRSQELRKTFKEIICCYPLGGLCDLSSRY
SMILES,inhibition at 1 µM [1],inhibition at 1 µM (hMC3-R),inhibition at 1 µM (hMC4-R),inhibition at 1 µM (hMC5-R)
"N[C@H](Cc1ccc(Cl)cc1Cl)C(=O)N1C[C@@H](Cc2ccccc2)NC[C@@H]1Cc1ccccc1 [Example 16, (R)-2-Amino-1-((2S,5R)-2,5-dibenzyl-piperazin-1-yl)-3-(2,4-dichloro-phenyl)-propan-1-one]",0%,0%,14%,0%
"Cc1ccc(S(=O)(=O)N[C@H](Cc2ccc(Cl)cc2)C(=O)N2CCN[C@H](Cc3ccc4ccccc4c3)C2)cc1 [Example 26, N—[(R)-1-(4-Chloro-benzyl)-2-((R)-3-naphthalen-2-ylmethyl-piperazin-1-yl)-2-oxo-ethyl]-4-methyl-benzenesulfonamide]",10%,14%,22%,20%
"N[C@H](Cc1ccccc1Cl)C(=O)N1CCN[C@H](Cc2ccc3ccccc3c2)C1 [Example 11, (R)-2-Amino-3-(2-chloro-phenyl)-1-((R)-3-naphthalen-2-ylmethyl-piperazin-1-yl)-propan-1-one]",4%,19%,9%,0%
CC(=O)Oc1ccccc1C(=O)N[C@H](Cc1ccc(Cl)cc1)C(=O)N1CCN[C@H](Cc2ccc3ccccc3c2)C1 [Example 27],10%,0%,4%,0%
"N[C@H](Cc1ccc(Cl)cc1Cl)C(=O)N1C[C@H](Cc2ccccc2)NC[C@H]1Cc1ccccc1 [Example 10, (R)-2-Amino-1-((2R,5S)-2,5-dibenzyl-piperazin-1-yl)-3-(2,4-dichloro-phenyl)-propan-1-one]",0%,0%,13%,0%
"O=C(Cc1ccccc1)N[C@H](Cc1ccc(Cl)cc1)C(=O)N1CCN[C@H](Cc2ccc3ccccc3c2)C1 [Example 25, N—[(R)-1-(4-Chloro-benzyl)-2-((R)-3-naphthalen-2-ylmethyl-piperazin-1-yl)-2-oxo-ethyl]-2-phenyl-acetamide]",5%,6%,19%,18%
"O=C(CCCc1ccccc1)N[C@H](Cc1ccc(Cl)cc1)C(=O)N1CCN[C@H](Cc2ccc3ccccc3c2)C1 [Example 24, N—[(R)-1-(4-Chloro-benzyl)-2-((R)-3-naphthalen-2-ylmethyl-piperazin-1-yl)-2-oxo-ethyl]-4-phenyl-butyramide]",5%,3%,20%,13%
"N[C@@H](Cc1ccccc1)C(=O)N1C[C@@H](Cc2ccccc2)NC[C@@H]1Cc1ccccc1 [Example 18, (S)-2-Amino-1-((2S,5R)-2,5-dibenzyl-piperazin-1-yl)-3-phenyl-propan-1-one]",0%,0%,8%,12%
"O=C(N[C@H](Cc1ccccc1Cl)C(=O)N1CCN[C@H](Cc2ccc3ccccc3c2)C1)[C@H]1Cc2ccccc2CN1 [Example 13, (R)-1,2,3,4-Tetrahydro-isoquinoline-3-carboxylic acid [(R)-1-(2-chloro-benzyl)-2-((R)-3-naphthalen-2-ylmethyl-piperazin-1-yl)-2-oxo-ethyl]-amide]",24%,17%,19%,20%
"N[C@@H](Cc1c[nH]cn1)C(=O)N[C@H](Cc1ccccc1Cl)C(=O)N1CCN[C@H](Cc2ccc3ccccc3c2)C1 [Example 12, (S)-2-Amino-N—[(R)-1-(2-chloro-benzyl)-2-((R)-3-naphthalen-2-ylmethyl-piperazin-1-yl)-2-oxo-ethyl]-3-(1H-imidazol-4-yl)-propionamide]",52%,18%,0%,12%
"N[C@H](Cc1ccc(Cl)cc1)C(=O)N1CCN[C@H](Cc2ccc3ccccc3c2)C1 [Example 19, (R)-2-Amino-3-(4-chloro-phenyl)-1-((R)-3-naphthalen-2-ylmethyl-piperazin-1-yl)-propan-1-one]",5%,0%,21%,0%
"N[C@@H](COCc1ccccc1)C(=O)N[C@H](Cc1ccc(Cl)cc1)C(=O)N1CCN[C@H](Cc2ccc3ccccc3c2)C1 [Example 22, (S)-2-Amino-3-benzyloxy-N—[(R)-1-(4-chloro-benzyl)-2-((R)-3-naphthalen-2-ylmethyl-piperazin-1-yl)-2-oxo-ethyl]-propionamide]",2%,54%,36%,27%
"N[C@H](Cc1ccc2ccccc2c1)C(=O)N1C[C@H](Cc2ccccc2)NC[C@H]1Cc1ccccc1 [Example 8, (R)-2-Amino-1-((2R,5S)-2,5-dibenzyl-piperazin-1-yl)-3-naphthalen-2-yl-propan-1-one]",0%,0%,0%,10%
"CCCC(CCC)C(=O)N[C@H](Cc1ccc(Cl)cc1)C(=O)N1CCN[C@H](Cc2ccc3ccccc3c2)C1 [Example 28, 2-Propyl-pentanoic acid [(R)-1-(4-chloro-benzyl)-2-((R)-3-naphthalen-2-ylmethyl-piperazin-1-yl)-2-oxo-ethyl]-amide]",0%,0%,38%,-4%
"N[C@@H](Cc1c[nH]cn1)C(=O)N[C@H](Cc1ccc(Cl)cc1)C(=O)N1CCN[C@H](Cc2ccc3ccccc3c2)C1 [Example 20, (S)-2-Amino-N—[(R)-1-(4-chloro-benzyl)-2-((R)-3-naphthalen-2-ylmethyl-piperazin-1-yl)-2-oxo-ethyl]-3-(1H-imidazol-4-yl)-propionamide]",71%,18%,25%,0%
"N[C@@H](Cc1ccccc1)C(=O)N1C[C@H](Cc2ccccc2)NC[C@H]1Cc1ccccc1 [Example 9, (S)-2-Amino-1-((2R,5S)-2,5-dibenzyl-piperazin-1-yl)-3-phenyl-propan-1-one]",0%,0%,0%,0%
"O=C(N[C@H](Cc1ccc(Cl)cc1)C(=O)N1CCN[C@H](Cc2ccc3ccccc3c2)C1)[C@H]1Cc2ccccc2CN1 [Example 21, (R)-1,2,3,4-Tetrahydro-isoquinoline-3-carboxylic acid [(R)-1-(4-chloro-benzyl)-2-((R)-3-naphthalen-2-ylmethyl-piperazin-1-yl)-2-oxo-ethyl]-amide]",6%,26%,30%,14%
"N[C@H](Cc1ccccc1)C(=O)N1C[C@@H](Cc2ccccc2)NC[C@@H]1Cc1ccccc1 [Example 17, (R)-2-Amino-1-((2S,5R)-2,5-dibenzyl-piperazin-1-yl)-3-phenyl-propan-1-One]",0%,0%,6%,3%
"N[C@@H](COCc1ccccc1)C(=O)N[C@H](Cc1ccccc1Cl)C(=O)N1CCN[C@H](Cc2ccc3ccccc3c2)C1 [Example 14, (S)-2-Amino-3-benzyloxy-N—[(R)-1-(2-chloro-benzyl)-2-((R)-3-naphthalen-2-ylmethyl-piperazin-1-yl)-2-oxo-ethyl]-propionamide]",46%,33%,56%,23%
"CC(=O)N[C@H](Cc1ccc(Cl)cc1)C(=O)N1CCN[C@H](Cc2ccc3ccccc3c2)C1 [Example 23, N—[(R)-1-(4-Chloro-benzyl)-2-((R)-3-naphthalen-2-ylmethyl-piperazin-1-yl)-2-oxo-ethyl]-acetamide]",6%,0%,13%,4%
"N[C@H](Cc1ccc2ccccc2c1)C(=O)N1C[C@@H](Cc2ccccc2)NC[C@@H]1Cc1ccccc1 [Example 15, (R)-2-Amino-1-((2S,5R)-2,5-dibenzyl-piperazin-1-yl)-3-naphthalen-2-yl-propan-1-one]",0%,0%,18%,3%
